pEC50: −log10 of the molar value.
Legend:
FGFR2 = FGFR2 (Homo sapiens (Human), UniProt P21802); assay: KINOMEscan competitive binding assay; details: 10 uM
Method: For the competitive binding assay, test compounds were screened at 10 μM against 70 diverse kinase targets for competitive binding using the KINOMEscan™ technology (Ambit Biosciences) (Karaman, et al. (2008) Nature biotechnology 26:127-132). 11-point Kd curves were determined for hits identified during the initial screen.

SRPK2 = SRPK2 (Homo sapiens (Human), UniProt P78362); assay: KINOMEscan competitive binding assay; details: 10 uM
B-RAF (V600E) = assay: ERK phosphorylation in 1205Lu melanoma cells expressing B-RAF V600E; type: cell-based, human; details: 10 μM, 1 h
MEK S298 = assay: PAK-mediated MEK S298 phosphorylation in endothelial cells; type: cell-based, human; details: HUVECs stimulated with bFGF or VEGF, 5 μM
Method: FIG. 1A-1F illustrate molecular modeling and assay screening to compounds for dual targeting of PDGFRβ and RAF. (FIG. 1A) Molecular modeling of the amino-triazole based small molecules in PDGFRβ and RAF, respectively. […] A homology model of PDGFRβ was created with a structurally-related family member (VEGFR2, PDB 1y6b). […] To autophosphorylation, immunoblots were carried out with a phospho-tyrosine antibody. Membranes were stripped and reprobed for total PDGFRβ levels. […] (FIG. 1D) Structure activity relationships of the amino-triazole based small molecules comparing both PDGFRβ and B-RAF. […] Curves represent the average of 3 separate experiments, error bars represent ±SEM.
Following stimulation with bFGF, VEGFA or PDGF-BB, cells were washed 1× with ice-cold PBS and lysed in RIPA buffer. For the PDGFRβ autophosphorylation assay in VSMCs, 500 μg of protein from lysates was incubated with 3 μg of anti-PDGFRβ (sc-432, Santa Cruz Biotechnology) for 1 h at 4° C. and subsequently tumbled overnight with protein A/G beads (Pierce) for immunoprecipitation. […] HRP conjugated primary or secondary Abs were detected with SuperSignal ECL (Pierce). […]

[1] = Pharmacokinetic analysis in mice; type: in vivo
tumor lines = assay: Tumor cell viability, summary over tumor lines; type: cell-based; details: summary of Table 5
[2] = Treatment of fibrosis in patients with interstitial lung disease; type: in vivo, human; details: 50 mg/Kg/day, oral, 6 months
Method: This can include patients referred for presumed pulmonary fibrosis/interstitial pneumonitis (IPF, UIP, NSIP), sarcoidosis, hypersensitivity pneumonitis, cryptogenic organising pneumonia, drug-induced, or other idiopathic ILDs. The patients are evaluated after 6 months of treatment.

NCI60 panel = NCI60 panel growth inhibition; type: cell-based; details: average across NCI60 panel; read-out: average growth inhibitory concentration (GI50)

SRPK2, sequence (P78362 whole entry): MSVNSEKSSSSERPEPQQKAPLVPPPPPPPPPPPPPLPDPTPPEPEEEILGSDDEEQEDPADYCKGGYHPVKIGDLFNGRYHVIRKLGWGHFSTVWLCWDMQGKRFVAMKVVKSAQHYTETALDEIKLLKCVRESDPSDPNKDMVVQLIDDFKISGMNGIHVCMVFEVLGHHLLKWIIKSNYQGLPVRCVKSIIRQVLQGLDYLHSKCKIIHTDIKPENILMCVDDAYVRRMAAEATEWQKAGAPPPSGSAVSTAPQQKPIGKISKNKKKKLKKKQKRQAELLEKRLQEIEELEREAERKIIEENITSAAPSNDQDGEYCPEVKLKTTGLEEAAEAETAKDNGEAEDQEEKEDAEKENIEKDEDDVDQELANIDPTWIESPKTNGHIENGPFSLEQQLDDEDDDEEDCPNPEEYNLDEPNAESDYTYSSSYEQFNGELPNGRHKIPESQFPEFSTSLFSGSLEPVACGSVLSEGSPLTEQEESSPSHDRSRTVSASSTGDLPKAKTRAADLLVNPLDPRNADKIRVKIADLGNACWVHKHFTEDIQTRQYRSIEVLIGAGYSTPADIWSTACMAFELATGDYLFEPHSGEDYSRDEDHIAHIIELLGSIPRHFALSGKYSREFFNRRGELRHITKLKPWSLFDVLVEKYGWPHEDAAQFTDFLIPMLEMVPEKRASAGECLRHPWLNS
FGFR2, sequence (P21802 22-821): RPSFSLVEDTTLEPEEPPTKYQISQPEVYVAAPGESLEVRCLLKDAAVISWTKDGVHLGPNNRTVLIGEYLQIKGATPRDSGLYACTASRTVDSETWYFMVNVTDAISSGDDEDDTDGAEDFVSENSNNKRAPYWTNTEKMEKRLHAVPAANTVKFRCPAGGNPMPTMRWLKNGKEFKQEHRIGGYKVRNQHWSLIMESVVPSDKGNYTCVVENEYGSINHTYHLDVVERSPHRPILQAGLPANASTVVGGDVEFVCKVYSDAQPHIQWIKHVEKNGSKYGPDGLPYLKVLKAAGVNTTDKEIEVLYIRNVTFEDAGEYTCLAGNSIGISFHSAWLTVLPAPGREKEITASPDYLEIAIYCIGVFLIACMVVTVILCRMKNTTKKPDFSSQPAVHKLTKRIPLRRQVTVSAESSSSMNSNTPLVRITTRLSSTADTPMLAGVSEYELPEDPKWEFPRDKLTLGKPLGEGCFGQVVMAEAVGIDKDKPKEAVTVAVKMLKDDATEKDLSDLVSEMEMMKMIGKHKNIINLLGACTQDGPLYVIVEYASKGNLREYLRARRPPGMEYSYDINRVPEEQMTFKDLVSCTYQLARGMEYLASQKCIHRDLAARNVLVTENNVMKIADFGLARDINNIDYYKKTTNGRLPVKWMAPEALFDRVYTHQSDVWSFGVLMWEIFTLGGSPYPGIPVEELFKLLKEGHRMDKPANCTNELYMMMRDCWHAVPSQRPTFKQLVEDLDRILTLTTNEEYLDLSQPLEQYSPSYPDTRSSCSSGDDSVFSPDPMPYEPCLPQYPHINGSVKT

Compound: CSc1nc(N)cc(Oc2ccc(-c3nnc(Nc4cccc(C(F)(F)F)c4)[nH]3)cc2)n1 [Compound 6]
- % Control (FGFR2): 100%
- % Control (SRPK2): 100%
- phosphorylation of ERK T202/Y204 in cells expressing constitutively active B-RAF (V600E) (B-RAF (V600E)): completely disrupted
- PAK-mediated phosphorylation on MEK S298 (MEK S298): did not block
- AUC0-12h ([1]; 50 mg/kg, ip, bid): 14700 ng·h/mL
- T1/2 ([1]; 50 mg/kg, ip, bid): 11.5 h
- AUC0-24h ([1]; 100 mg/kg, oral): 8700 ng·h/mL
- Cmax (printed C.) ([1]; 100 mg/kg, oral): 4900 ng/mL
- T1/2 ([1]; 100 mg/kg, oral): 6.1 h
- times more potent than sorafenib (tumor lines): 15-100 times
- pEC50 (tumor lines; read-out: EC50 in wide range of tumor lines): 6.22 to 7.00
- outcome of fibrosis treatment versus placebo [2]: improvement over placebo group
- GI50 (NCI60 panel): 490 nM

From patent US9260417B2, “Therapeutic methods and compositions involving allosteric kinase inhibition” (AMITECH THERAPEUTIC SOLUTIONS, INC., priority 2010, dated 2016)
